One data set concerns IL-10. The experiment in a line: Porcine SMA+FC model: IL-10 concentration in BALF. As to conditions: pig, in vivo. On the set-up: species or system pigs.
For data set [1], the system named is lung tissue. The experiment in a line: Porcine SMA+FC model: morphometric analysis of lung tissue and lung water. The data set is classed as in vivo, pigs.
Text: (§2) A sepsis-induced ARDS porcine model was developed. […] In addition, the protocol included a 3-day termination period, due to the severity of the ARDS associated with this model and the desire to obtain clinically relevant end-point data on all animals.
For a further data set, the system named is neutrophil elastase. The experiment in a line: Porcine SMA+FC model: BALF elastase activity. Details: species or system pigs. The settings on record: pig, in vivo.
Data set [2] addresses T1, MMP-9 (Sus scrofa, UniProt A0A287AZD5).
T1 construct: from tissue; host or cells: pig bronchoalveolar lavage fluid (BALF)
Kind of data set: Porcine SMA+FC model: MMP-9 in BALF. On the set-up: species or system pigs. The settings on record: pig, in vivo.
Text: as §2

In data set [3] the test system is MMP-9. Kind of data set: Rat CLP model: lung tissue MMP-9 level by immunohistochemistry. The data set is classed as in vivo, Sprague-Dawley rats. As to the method:
(§1) Experimental Protocol: Rats were randomly divided into 5 groups: GROUP 1) Sham CLP+2% solution of carboxymethylcellulose (CMC; vehicle for COL-3) in saline-midline laparotomy with cecum exposed and mesentery sharply incised plus oral gavage at the time of surgery with CMC (n=6); GROUP 2) Sham CLP+COL-3 (Collagenex Pharmaceutical, Newtown, Pa.)-midline laparotomy with cecum exposed and mesentery sharply incised plus oral gavage at the time of surgery with COL-3 (30 mg/kg, n=6); GROUP 3) CLP+CMC-midline laparotomy with CLP plus oral gavage at time of surgery with CMC (n=10); GROUP 4) CLP+COL-3 single dose [SD]-midline laparotomy with CLP plus oral gavage at the time of surgery with COL-3 (30 mg/kg, n=9); GROUP 5) CLP+COL-3 multiple dose [MD]-midline laparotomy with CLP plus oral gavage at the time of surgery and at 24 hours post CLP with COL-3 (30 mg/kg each administration for a total dose of 60 mg/kg, n=15). Rats were followed for 168 hours (7 days) with survival defined as hours post-CLP and survival time of each rat recorded. Rats were sacrificed at 168 hours or immediately following death. At necropsy, the left lung was excised and its bronchus cannulated. The lung was inflated to a pressure of 4 cmH2O with 10% formalin. The cannula was clamped and the lung stored in formalin at room temperature for 24 hours. The tissue was blocked in paraffin and serial sections made for staining with hematoxylin and eosin. Additionally, the remaining paraffin section of fixed lung was used for immunohistochemical determination of MMP-2 and MMP-9.
Lung tissue MMP-2 and MMP-9 levels: The levels of alveolar tissue MMP-2 and MMP-9 was assessed by immunohistochemical analysis as described elsewhere. Briefly, four micrometer formalin fixed paraffin sections were treated with xylene to remove paraffin and hydrated. The paraffin sections were treated with 0.4% pepsin for 45 minutes at +37° C. For immunostaining VECTASTAIN™ Rabbit ABC Elite Kit (Vector Laboratories, Burlingame, Calif.) was used according to manufactures instructions. […]

In data set [4] the test system is lung tissue. Kind of data set: Rat CLP model: lung histology. The data set is classed as in vivo, Sprague-Dawley rats. As for the experimental part:
Surgical Procedure: Male Sprague-Dawley rats weighing between 250-300 g were acclimatized to the laboratory environment for one week prior to surgery. Free access to food and water was available for this time period. Rats were anesthetized with intraperitoneal (IP) Ketamine (90 mg/kg)/Xylazine (10 mg/kg ). Sepsis was produced using a modification of the cecal ligation and puncture (CLP) technique described by Chaudry et al. After the abdominal fur was shaved, a 2 cm midline incision was made through the skin and peritoneum. The cecum was identified and withdrawn through the incision. The avascular portion of the mesentery was sharply incised and the cecum was ligated just below the ileocecal valve with a 3-0 silk suture, so that intestinal continuity was maintained. Using an 18 gauge needle, the cecum was perforated in two locations on the antimesenteric surface and was gently compressed until feces were extruded to ensure patency of the holes. The bowel was then returned to the abdomen and the incision was closed in 2 layers using 3-0 Prolene™ for the muscle and 2-0 silk for the skin. Each rat received 10 cc physiological saline subcutaneously immediately after the procedure and at 12 and 24 hours post-surgery. The rats were allowed to recover with water and food provided ad libitum throughout the remainder of the study.
as §1
Histology: The lung tissue in each slide preparation was evaluated without knowledge of the treatment group from which it came. The slides were reviewed at low magnification for an overview to exclude sections containing bronchi, connective tissue, large blood vessels, and areas of confluent atelectasis, so that only regions reflecting the degree and stage of parenchymal injury would be evaluated. The areas of the slides which were not excluded were assessed at high magnification (400×) in the following manner. Five high power fields (HPF) were randomly sampled. […] Specifically, alveolar wall thickening, defined as greater than two cell layers thick, was graded as “0” (absent) or “1” (present) in each field. Intra-alveolar edema fluid, defined as homogenous or fibrillar proteinaceous staining within the alveoli, was graded as “0” (absent) or “1” (present) in each field. A total score/5HPF for alveolar wall thickening and intra-alveolar edema fluid was recorded for each animal. […]

Data set [5] is described as follows: Porcine SMA+FC model: blood COL-3 concentration.
Setting [6] is: morphometric analysis of lung tissue.

“Also recorded” adds a separate entry of the source.

T1 sequence (A0A287AZD5 19-708): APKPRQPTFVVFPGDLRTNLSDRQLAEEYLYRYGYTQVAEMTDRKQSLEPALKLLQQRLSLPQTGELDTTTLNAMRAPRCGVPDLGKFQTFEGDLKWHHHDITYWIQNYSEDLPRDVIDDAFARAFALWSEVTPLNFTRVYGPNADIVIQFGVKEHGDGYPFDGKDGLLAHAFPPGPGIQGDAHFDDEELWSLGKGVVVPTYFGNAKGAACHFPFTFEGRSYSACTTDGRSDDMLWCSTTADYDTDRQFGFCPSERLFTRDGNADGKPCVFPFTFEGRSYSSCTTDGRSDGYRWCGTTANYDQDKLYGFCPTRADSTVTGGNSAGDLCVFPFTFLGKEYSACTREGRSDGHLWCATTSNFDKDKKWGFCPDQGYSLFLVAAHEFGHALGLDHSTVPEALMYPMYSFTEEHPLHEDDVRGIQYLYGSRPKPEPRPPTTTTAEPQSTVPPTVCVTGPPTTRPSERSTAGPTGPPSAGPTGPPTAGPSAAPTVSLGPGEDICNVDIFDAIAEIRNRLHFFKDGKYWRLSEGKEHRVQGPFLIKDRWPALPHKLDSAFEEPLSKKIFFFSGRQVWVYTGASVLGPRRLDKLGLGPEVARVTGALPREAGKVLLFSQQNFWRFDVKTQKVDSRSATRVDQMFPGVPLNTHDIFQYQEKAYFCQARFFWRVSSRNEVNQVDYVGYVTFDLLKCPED
Text for IL-10: In addition, the protocol included a 3-day termination period, due to the severity of the ARDS associated with this model and the desire to obtain clinically relevant end-point data on all animals.
Text for neutrophil elastase: as §2

`NC(=O)C1=C(O)C[C@@H]2C[C@@H]3Cc4cccc(O)c4C(=O)C3=C(O)[C@]2(O)C1=O` [COL-3, 6-demethyl-6-deoxy-4-de(dimethylamino)tetracycline]: the “Increase in IL-10 concentration in BALF” value in the data set on IL-10 was “blocked the increase”. For the same compound, the “Number of neutrophils sequestered in the lung” value in the data set on lung tissue [1] (SMA+FC and SMA+FC+COL-3 groups vs Control Group, morphometric assessment) is “increased equally”; in the data set with lung tissue [4] (CLP+COL-3 (MD) vs CLP+CMC), “no significant differences”; in the data set on lung tissue [4] (CLP+COL-3 (SD) vs CLP+CMC), “no significant differences”. Besides, the “Decrease in hyline membranes” value with lung tissue [1] (setting [6]) is 94%. For the same compound, the “Reduction in alveolar edema” value in the data set with lung tissue [1] (setting [6]) came out at 62%. In addition, the “Decrease in lung water” value in the data set on lung tissue [1] (pig, in vivo) is recorded as 41%. The “Neutrophil elastase in BALF” value with neutrophil elastase was “inhibited”. Besides, the “Reduction in BALF elastase activity” value with neutrophil elastase turned out to be 87%. At MMP-9 [2], the “MMP-9 in BALF” value is “inhibited”. Moreover, the “Lung tissue level of MMP-9” value with MMP-9 [3] (CLP+COL-3 (MD) vs CLP+CMC and CLP+COL-3 (SD)) was “further reduced the level of MMP-9 to Sham CLP levels; also recorded: significantly reduced”; with MMP-9 [3] (CLP+COL-3 (SD) vs CLP+CMC), “reduced MMP-9 levels compared to the CLP+CMC group, but was not statistically significant”. For the same compound, the “Alveolar tissue level of MMP-9” value with MMP-9 [3] (COL-3 administration, dose dependent fashion, vs CLP+CMC) is on record as “significantly reduced”. Further, the “Number of thickened alveolar walls” value in the data set on lung tissue [4] (CLP+COL-3 (MD) vs CLP+CMC) and in the data set with lung tissue [4] (CLP+COL-3 (SD) vs CLP+CMC) was “significantly reduced” in each case. The Intra-alveolar edema fluid entry is “significant reduction” with lung tissue [4] (CLP+COL-3 (MD), second dose, vs CLP+CMC) and “reduced in the CLP+COL-3 (SD) group as compared to the CLP+CMC group, but was not statistically significant” with lung tissue [4] (CLP+COL-3 (SD) vs CLP+CMC). For the same compound, the entries for the “Blood COL-3 concentration” value in data set [5] (Day 1), in data set [5] (Day 2) and in data set [5] (Day 3) were 3.1 ± 0.3 µg/mL, 4.9 ± 1.0 µg/mL and 3.1 ± 1.0 µg/mL, respectively.

Source of the values: US20040092491A1, “Method of treating sepsis-induced ARDS” (The Research Foundation of State University of New York, priority 2002, published 2004).
